“And” between values parts separate entries of the source, which are not always exact repeats. Equal entries are not always repeated. Inconclusive results are not listed.

The results in this text go back to PubChem BioAssay AID194 (DTP/NCI, 2004).

The test system of this assay is BDF1 mice, B16 melanoma s.c., survival/tumor T/C. Description: NCI In Vivo Anticancer Drug Screen. Data for tumor model B16 Melanoma (subcutaneous) in B6D2F1 (BDF1) mice. Here is the method: The antitumor activity of compounds was measured in mice bearing transplantable tumors. Survival or tumor size were measured and the results are expressed as the measurement made in the treated group (T) divided by the measurement made in the vehicle treated control group (C). The tumor model used in this assay is B16 Melanoma (subcutaneous) in B6D2F1 (BDF1) mice

Setting [1] is: endpoint: median survival time, dose: 1.0 mg/kg/injection, schedule: Q01DX009 (ip), vehicle: saline, higher = longer survival.
The mark [2] stands for this setting: endpoint: median survival time, dose: 2.0 mg/kg/injection, schedule: Q01DX009 (ip), vehicle: saline, higher = longer survival.

For `O=C(O)CCCCC1CCSS1` (stereo not given), the T/C is 116 % of control and 117 % of control (endpoint: median survival time, dose: 7.81 mg/kg/injection, schedule: Q01DX009 (ip), vehicle: Klucel (hydroxypropylcellulose) (HPC), higher = longer survival); 112 % of control and 116 % of control (endpoint: median survival time, dose: 15.62 mg/kg/injection, schedule: Q01DX009 (ip), vehicle: Klucel (hydroxypropylcellulose) (HPC), higher = longer survival); 99 % of control and 100 % of control (endpoint: median survival time, dose: 125.0 mg/kg/injection, schedule: Q01DX009 (ip), vehicle: Klucel (hydroxypropylcellulose) (HPC), higher = longer survival).

With `Cc1c(N)nc([C@H](CC(N)=O)NC[C@H](N)C(N)=O)nc1C(=O)N[C@H](C(=O)N[C@H](C)[C@@H](O)[C@H](C)C(=O)N[C@H](C(=O)NCCc1nc(-c2nc(C(=O)NCCC[S+](C)C)cs2)cs1)[C@@H](C)O)C(OC1OC(CO)C(O)C(O)C1OC1OC(CO)C(O)C(OC(N)=O)C1O)c1cnc[nH]1` (stereo not given in full), the T/C under setting [1] is 120 % of control; the T/C (endpoint: median survival time, dose: 2.0 mg/kg/injection, schedule: Q01DX009 (ip), vehicle: water, higher = longer survival) is 152 % of control and 160 % of control; the T/C (endpoint: median survival time, dose: 3.0 mg/kg/injection, schedule: Q01DX005 (ip), vehicle: water, higher = longer survival) is 118 % of control; the T/C (endpoint: median survival time, dose: 3.0 mg/kg/injection, schedule: Q01DX009 (ip), vehicle: saline, higher = longer survival) was 119 % of control; the T/C (endpoint: median survival time, dose: 3.0 mg/kg/injection, schedule: Q01DX009 (ip), vehicle: water, higher = longer survival) is 96 % of control; the T/C (endpoint: median survival time, dose: 3.12 mg/kg/injection, schedule: Q01DX009 (ip), vehicle: Klucel (hydroxypropylcellulose) (HPC), higher = longer survival) is 171 % of control. Moreover, the T/C was 165 % of control and 179 % of control (endpoint: median survival time, dose: 4.0 mg/kg/injection, schedule: Q01DX009 (ip), vehicle: water, higher = longer survival); 118 % of control (endpoint: median survival time, dose: 6.0 mg/kg/injection, schedule: Q01DX005 (ip), vehicle: water, higher = longer survival); 121 % of control (endpoint: median survival time, dose: 6.0 mg/kg/injection, schedule: Q01DX009 (ip), vehicle: saline, higher = longer survival); 109 % of control (endpoint: median survival time, dose: 6.0 mg/kg/injection, schedule: Q01DX009 (ip), vehicle: water, higher = longer survival); 175 % of control (endpoint: median survival time, dose: 6.25 mg/kg/injection, schedule: Q01DX009 (ip), vehicle: Klucel (hydroxypropylcellulose) (HPC), higher = longer survival); 162 % of control and 185 % of control (endpoint: median survival time, dose: 8.0 mg/kg/injection, schedule: Q01DX009 (ip), vehicle: water, higher = longer survival). Besides, the T/C (endpoint: median survival time, dose: 12.0 mg/kg/injection, schedule: Q01DX009 (ip), vehicle: water, higher = longer survival) was 112 % of control; the T/C (endpoint: median survival time, dose: 12.5 mg/kg/injection, schedule: Q01DX009 (ip), vehicle: Klucel (hydroxypropylcellulose) (HPC), higher = longer survival) is 168 % of control; the T/C (endpoint: median survival time, dose: 16.0 mg/kg/injection, schedule: Q01DX009 (ip), vehicle: water, higher = longer survival) was 158 % of control (2×) and 159 % of control; the T/C (endpoint: median survival time, dose: 16.0 mg/kg/injection, schedule: Q01DX010 (ip), vehicle: water, higher = longer survival) was 93 % of control; the T/C (endpoint: median survival time, dose: 20.0 mg/kg/injection, schedule: Q01DX009 (ip), vehicle: saline, higher = longer survival) is 161 % of control; the T/C (endpoint: median survival time, dose: 24.0 mg/kg/injection, schedule: Q01DX009 (ip), vehicle: saline, higher = longer survival) is 112 % of control. The T/C is 100 % of control (endpoint: median survival time, dose: 25.0 mg/kg/injection, schedule: Q01DX009 (ip), vehicle: Klucel (hydroxypropylcellulose) (HPC), higher = longer survival); 171 % of control (endpoint: median survival time, dose: 32.0 mg/kg/injection, schedule: Q01DX009 (ip), vehicle: water, higher = longer survival); 47 % of control (endpoint: median tumor weight (est.), dose: 8.0 mg/kg/injection, schedule: Q01DX009 (ip), vehicle: water, higher = larger tumour); 22 % of control and 43 % of control (endpoint: median tumor weight (est.), dose: 12.0 mg/kg/injection, schedule: Q01DX009 (ip), vehicle: saline, higher = larger tumour); 33 % of control (endpoint: median tumor weight (est.), dose: 16.0 mg/kg/injection, schedule: Q01DX009 (ip), vehicle: water, higher = larger tumour); 18 % of control and 27 % of control (endpoint: median tumor weight (est.), dose: 24.0 mg/kg/injection, schedule: Q01DX009 (ip), vehicle: saline, higher = larger tumour).

Turning to `COC(=O)C[C@](O)(CCC(C)(C)O)C(=O)O[C@@H]1C(OC)=C[C@]23CCCN2CCc2cc4c(cc2[C@H]13)OCO4`, the T/C (endpoint: median survival time, dose: 0.7 mg/kg/injection, schedule: Q01DX009 (ip), vehicle: saline, higher = longer survival) was 101 % of control; the T/C under setting [1] is 87 % of control; the T/C (endpoint: median survival time, dose: 1.5 mg/kg/injection, schedule: Q01DX009 (ip), vehicle: saline, higher = longer survival) is 91 % of control; the T/C (endpoint: median survival time, dose: 2.3 mg/kg/injection, schedule: Q01DX009 (ip), vehicle: saline, higher = longer survival) is 105 % of control.

As for `O=C1c2c(O)ccc(O)c2C(=O)c2c(NCCNCCO)ccc(NCCNCCO)c21`, the T/C was 102 % of control (endpoint: median survival time, dose: 0.25 mg/kg/injection, schedule: Q01DX009 (ip), vehicle: other, higher = longer survival); 89 % of control (endpoint: median survival time, dose: 0.5 mg/kg/injection, schedule: Q01DX009 (ip), vehicle: other, higher = longer survival); 120 % of control (endpoint: median survival time, dose: 0.5 mg/kg/injection, schedule: Q01DX009 (ip), vehicle: saline with Tween-80, higher = longer survival); 106 % of control (endpoint: median survival time, dose: 1.0 mg/kg/injection, schedule: Q01DX009 (ip), vehicle: other, higher = longer survival); 90 % of control (endpoint: median survival time, dose: 2.0 mg/kg/injection, schedule: Q01DX009 (ip), vehicle: other, higher = longer survival); 102 % of control and 123 % of control (endpoint: median survival time, dose: 2.0 mg/kg/injection, schedule: Q01DX009 (ip), vehicle: saline with Tween-80, higher = longer survival).

`CNc1nc(N(C)C)nc(N(C)C)n1`: the T/C is, setting by setting: (endpoint: median survival time, dose: 67.0 mg/kg/injection, schedule: Q01DX009 (ip), vehicle: water, higher = longer survival) 112 % of control; (endpoint: median survival time, dose: 100.0 mg/kg/injection, schedule: Q04DX003 (ip), vehicle: water, higher = longer survival) 96 % of control; (endpoint: median survival time, dose: 150.0 mg/kg/injection, schedule: Q04DX003 (ip), vehicle: water, higher = longer survival) 95 % of control; (endpoint: median survival time, dose: 225.0 mg/kg/injection, schedule: Q04DX003 (ip), vehicle: water, higher = longer survival) 90 % of control.

For the molecule `Cc1c(N)nc(C(CC(N)=O)NCC(N)C(N)=O)nc1C(=O)NC(C(=O)NC(C)C(O)C(C)C(=O)NC(C(=O)NCCc1nc(-c2nc(C(=O)NCCCNCCCCN)cs2)cs1)C(C)O)C(OC1OC(CO)C(O)C(O)C1OC1OC(CO)C(O)C(OC(N)=O)C1O)c1cnc[nH]1` (stereo not given), the T/C reads like this: (endpoint: median survival time, dose: 1.56 mg/kg/injection, schedule: Q01DX009 (ip), vehicle: water, higher = longer survival) 164 % of control; (endpoint: median tumor weight (est.), dose: 1.56 mg/kg/injection, schedule: Q01DX009 (ip), vehicle: water, higher = larger tumour) 41 % of control; (endpoint: median tumor weight (est.), dose: 3.12 mg/kg/injection, schedule: Q01DX009 (ip), vehicle: water, higher = larger tumour) 24 % of control; (endpoint: median tumor weight (est.), dose: 6.25 mg/kg/injection, schedule: Q01DX009 (ip), vehicle: water, higher = larger tumour) 12 % of control.

On to `O=NN(CCCl)C(=O)NC1CCC(=O)NC1=O` (stereo not given), for which the T/C by setting is: (endpoint: median survival time, dose: 1.0 mg/kg/injection, schedule: Q01DX009 (ip), vehicle: Klucel (hydroxypropylcellulose) (HPC), higher = longer survival) 115 % of control; (endpoint: median survival time, dose: 1.56 mg/kg/injection, schedule: Q01DX007 (ip), vehicle: Klucel (hydroxypropylcellulose) (HPC), higher = longer survival) 97 % of control; (endpoint: median survival time, dose: 4.0 mg/kg/injection, schedule: Q01DX009 (ip), vehicle: Klucel (hydroxypropylcellulose) (HPC), higher = longer survival) 168 % of control and 228 % of control; (endpoint: median survival time, dose: 4.32 mg/kg/injection, schedule: Q01DX007 (ip), vehicle: Klucel (hydroxypropylcellulose) (HPC), higher = longer survival) 98 % of control; (endpoint: median survival time, dose: 7.2 mg/kg/injection, schedule: Q01DX007 (ip), vehicle: Klucel (hydroxypropylcellulose) (HPC), higher = longer survival) 121 % of control; (endpoint: median survival time, dose: 17.0 mg/kg/injection, schedule: Q01DX001 (ip), vehicle: gum acacia, higher = longer survival) 177 % of control. Further, the T/C (endpoint: median survival time, dose: 23.0 mg/kg/injection, schedule: Q01DX001 (ip), vehicle: gum acacia, higher = longer survival) was 89 % of control.

As to `S=P(N1CC1)(N1CC1)N1CC1`, the T/C (endpoint: median survival time, dose: 1.0 mg/kg/injection, schedule: Q01DX001 (oral), vehicle: saline, higher = longer survival) is 97 % of control; the T/C (endpoint: median survival time, dose: 1.0 mg/kg/injection, schedule: Q02DX009 (ip), vehicle: saline, higher = longer survival) is 109 % of control and 113 % of control; the T/C (endpoint: median survival time, dose: 2.0 mg/kg/injection, schedule: Q01DX001 (oral), vehicle: saline, higher = longer survival) is 89 % of control; the T/C under setting [2] was 106 % of control; the T/C (endpoint: median survival time, dose: 2.0 mg/kg/injection, schedule: Q02DX009 (ip), vehicle: saline, higher = longer survival) was 99 % of control and 202 % of control; the T/C (endpoint: median survival time, dose: 4.0 mg/kg/injection, schedule: Q01DX001 (oral), vehicle: saline, higher = longer survival) is 98 % of control. Besides, the T/C (endpoint: median survival time, dose: 8.0 mg/kg/injection, schedule: Q01DX001 (oral), vehicle: saline, higher = longer survival) was 100 % of control; the T/C (endpoint: median survival time, dose: 8.0 mg/kg/injection, schedule: Q02DX009 (ip), vehicle: saline, higher = longer survival) was 98 % of control; the T/C (endpoint: median survival time, dose: 12.5 mg/kg/injection, schedule: Q01DX001 (ip), vehicle: saline, higher = longer survival) is 105 % of control; the T/C (endpoint: median survival time, dose: 16.0 mg/kg/injection, schedule: Q01DX001 (oral), vehicle: saline, higher = longer survival) was 100 % of control.

Turning to `CC[CH2][Sn]([CH2]CC)([CH2]CC)[O][Sn]([CH2]CC)([CH2]CC)[CH2]CC`, the T/C by setting is: (endpoint: median survival time, dose: 0.5 mg/kg/injection, schedule: Q01DX009 (ip), vehicle: saline, higher = longer survival) 123 % of control; under setting [1], 114 % of control; under setting [2], 100 % of control.
